Laboratory results reported in patent US10604514B2, “6-(5-membered heteroaryl)isoquinolin-3-yl carboxamides and preparation and use thereof” (Samumed, LLC, priority 2017, dated 2020).
Where two headings read alike, the source gives them in different places.

Assays:
[1] = test system: LL29 cells (primary human fibroblasts derived from IPF patients), α-smooth muscle actin; experiment: Inhibition of fibrotic process: αSMA in TGF-β1-treated primary human fibroblasts from IPF patients (LL29 cells); format: cell-based; conditions: Homo sapiens, Fibroblast; for EC50: 96 h, % αSMA-positive LL29 cells, TGF-β1 20 ng/mL, 4 days; for inhibition at 10 µM: read-out: percent inhibition at 10 μM
In short: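 Read-out is the percentage of αSMA-positive cells by high-content imaging, excluding SYTOX green-positive dead/apoptotic cells, normalized to TGF-β1-only wells on the same plate. LL29 cells were exposed for 4 days at 37 °C to 20 ng/mL TGF-β1 plus 11-point, 2-fold compound dilutions in 0.1% DMSO.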

IL-6 = IL-6 inhibition in LPS-stimulated human peripheral blood mononuclear cells (HTRF); format: cell-based; conditions: Homo sapiens, PBMC; for EC50: IL-6, LPS-stimulated huPBMCs, HTRF; for inhibition at 10 µM: read-out: percent value in parentheses below EC50 >10
In short: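 EC50 from a 4-parameter fit of DMSO-normalized HTRF (665/620 nm) IL-6 signal, duplicates. Compound was added to fresh human PBMCs in 1% FBS RPMI for 2 h (top 10 μM, 3-fold, 0.25% DMSO) before 22 h stimulation with LPS at 50 ng/mL, 37 °C.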

GSK3β kinase = GSK3β kinase (Homo sapiens (Human), UniProt P49841); experiment: GSK3β kinase assay (Ser/Thr 09 peptide Z-lyte, FRET); format: biochemical; conditions: method text calls the value IC50;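 further: Coumarin/fluorescein emission ratio converted to percent phosphorylation against unphosphorylated (0%) and phosphorylated (100%) controls, 1 h compound incubation at room temperature, 11-point threefold dilutions from 10 µM, run in duplicate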
[2] = test system: Tau phosphorylation at Ser396 (pSer396), SH-SY5Y cells; experiment: Tau phosphorylation at Ser396 (pSer396) in SH-SY5Y cells, ELISA/western blot; format: cell-based, human; conditions: Homo sapiens; SH-SY5Y cells, overnight (16-18 h); read-out: pSer396 Tau EC50;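 further: cell lysates probed for reduced Tau pSer396 via ELISA (colorimetric) or western blot (chemiluminescence), both with one shared pSer396 antibody, EC50 for lowering phosphorylation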
[3] = test system: SW480 colon carcinoma cells; experiment: Cell viability assay (CellTiter-Glo) in SW480 cells; format: cell-based, human; conditions: Homo sapiens; for EC50: 96 h, cell viability, SW480 cells, four days, CellTiter-Glo; for inhibition at 10 µM: SW480, read-out: percent inhibition at 10 μM;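 on all read-outs here: SW480 cells stably carrying an Sp5-luciferase TCF/LEF reporter, luminescent ATP signal as viability measure, DMSO-treated cells as control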
[4] = test system: Wnt activity (Sp5-Luc reporter in SW480 colon carcinoma cells); experiment: Wnt activity screening assay (Sp5-Luc reporter gene assay); format: cell-based, human; conditions: Homo sapiens; for EC50: Sp5-Luc reporter, SW480 cells, 36 to 48 hours; for inhibition at 10 µM: SW480, read-out: percent inhibition at 10 μM
In short: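 Compounds at 10 points (1:3 steps, top 10 μM, 0.1% DMSO final) were incubated 36 to 48 h at 37° C with stable Sp5-Luc SW480 reporter cells in 1% FBS medium. Luciferase luminescence was then read and expressed relative to DMSO-only cells. Four-parameter variable-slope fitting yielded EC50 values.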

DYRK1A kinase = DYRK1A kinase (Homo sapiens (Human), UniProt Q13627); experiment: DYRK1A kinase assay (Ser/Thr 18 peptide Z-lyte, FRET)
[5] = DYRK1A kinase, method text calls the value IC50

GSK3β kinase, sequence (P49841 whole entry): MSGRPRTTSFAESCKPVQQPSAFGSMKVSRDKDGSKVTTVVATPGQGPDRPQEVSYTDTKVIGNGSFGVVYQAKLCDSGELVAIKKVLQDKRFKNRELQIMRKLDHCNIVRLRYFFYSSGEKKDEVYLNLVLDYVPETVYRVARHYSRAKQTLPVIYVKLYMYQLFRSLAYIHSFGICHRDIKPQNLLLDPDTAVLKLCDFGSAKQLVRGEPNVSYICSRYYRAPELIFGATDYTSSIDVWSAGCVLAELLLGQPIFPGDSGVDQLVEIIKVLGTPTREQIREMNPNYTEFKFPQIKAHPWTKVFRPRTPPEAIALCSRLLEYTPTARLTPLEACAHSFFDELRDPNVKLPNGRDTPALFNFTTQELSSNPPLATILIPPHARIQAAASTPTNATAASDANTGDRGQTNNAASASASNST

Row | SMILES | EC50 (IL-6) [µM] | EC50 (GSK3β kinase) [nM] | EC50 [2] [nM] | EC50 [3] [nM] | EC50 [4] [nM] | EC50 (DYRK1A kinase) [nM] | EC50 (DYRK1A kinase; [5]) [nM] | EC50 [1] [nM] | inhibition at 10 µM (IL-6) [%] | inhibition at 10 µM [1] [%] | inhibition at 10 µM [3] [%] | inhibition at 10 µM [4] [%]
1 | Cc1ncc(-c2ccc3cnc(NC(=O)C4CCC(N5CC5CF)CC4)cc3c2)o1 (stereo not drawn) [Compound 154, trans-4-(2-(fluoromethyl)aziridin-1-yl)-N-(6-(2-methyloxazol-5-yl)isoquinolin-3-yl)cyclohexane-1-carboxamide] | 1.13 | 124 | 580 | 761 | 2760 | 5 |  | 240 |  |  |  | 
2 | Cc1nnc(-c2ccc3cnc(NC(=O)N4CCC(NCCF)CC4)cc3c2)s1 [Compound 156, 4-((2-Fluoroethyl)amino)-N-(6-(5-methyl-1,3,4-thiadiazol-2-yl)isoquinolin-3-yl)piperidine-1-carboxamide] | > 10 | 34 | 615 | 2550 | 2840 |  | 7 | 2380 | 28.8 |  |  | 
3 | [2H]c1c([2H])c([2H])c(C(=O)Nc2cc3cc(-c4cnc(C)n4C)ccc3cn2)c(F)c1[2H] [Compound 157, N-(6-(1,2-Dimethyl-1H-imidazol-5-yl)isoquinolin-3-yl)-2-fluorobenzamide-3,4,5,6-d4] | > 10 | > 10000 | 720 | 2380 | 1730 | 19 |  | 5790 | 0 |  |  | 
4 | [2H]c1c([2H])c(C(=O)Nc2cc3cc(-c4cnc(C)n4C)ccc3cn2)c([2H])c([2H])c1F [Compound 158, N-(6-(1,2-Dimethyl-1H-imidazol-5-yl)isoquinolin-3-yl)-4-fluorobenzamide-2,3,5,6-d4] | 3.35 | 2600 | > 10000 | 781 | 514 | 5 |  | 1220 |  |  |  | 
5 | [2H]c1c([2H])c([2H])c(C(=O)Nc2cc3cc(-c4cnc(C)n4C)ccc3cn2)c(Cl)c1[2H] [Compound 159, 2-Chloro-N-(6-(1,2-dimethyl-1H-imidazol-5-yl)isoquinolin-3-yl)benzamide-3,4,5,6-d4] | > 10 | > 10000 | > 10000 | 8000 | 4200 | 27 |  | > 10000 | 1.6 | 31.4 |  | 
6 | [2H]c1c([2H])c(C(=O)Nc2cc3cc(-c4cnc(C)n4C)ccc3cn2)c([2H])c([2H])c1Cl [Compound 160, 4-Chloro-N-(6-(1,2-dimethyl-1H-imidazol-5-yl)isoquinolin-3-yl)benzamide-2,3,5,6-d4] | 3.3 | 3030 | > 10000 | 415 | 309 | 4 |  | 1010 |  |  |  | 
7 | [2H]C([2H])([2H])c1ccc(C(=O)Nc2cc3cc(-c4cnc(C)n4C)ccc3cn2)cc1 [Compound 161, N-(6-(1,2-Dimethyl-1H-imidazol-5-yl)isoquinolin-3-yl)-4-(methyl-d3) benzamide] | > 10 | 5670 | > 10000 | 660 | 736 | 10 |  | 3000 | 42.2 |  |  | 
8 | [2H]c1c([2H])c(C(=O)Nc2cc3cc(-c4cnc(C)n4C)ccc3cn2)c([2H])c([2H])c1C [Compound 162, N-(6-(1,2-Dimethyl-1H-imidazol-5-yl)isoquinolin-3-yl)-4-methylbenzamide-2,3,5,6-d4] | > 10 | 5060 | > 10000 | 653 | 588 | 11 |  | 2000 | 44.7 |  |  | 
9 | [2H]c1c([2H])c(C([2H])([2H])[2H])c([2H])c([2H])c1C(=O)Nc1cc2cc(-c3cnc(C)n3C)ccc2cn1 [Compound 163, N-(6-(1,2-Dimethyl-1H-imidazol-5-yl)isoquinolin-3-yl)-4-(methyl-d3) benzamide-2,3,5,6-d4] | 5.72 | 4270 | > 10000 | 795 | 604 | 5 |  | 876 |  |  |  | 

The next lines start with results.

Row | EC50 (IL-6) [µM] | EC50 (GSK3β kinase) [nM] | EC50 [2] [nM] | EC50 [3] [nM] | EC50 [4] [nM] | EC50 (DYRK1A kinase) [nM] | EC50 (DYRK1A kinase; [5]) [nM] | SMILES | EC50 [1] [nM] | inhibition at 10 µM (IL-6) [%] | inhibition at 10 µM [1] [%] | inhibition at 10 µM [3] [%] | inhibition at 10 µM [4] [%]
10 | 3.39 | 4580 | > 10000 | 782 | 638 | 11 |  | [2H]C([2H])([2H])Oc1ccc(C(=O)Nc2cc3cc(-c4cnc(C)n4C)ccc3cn2)cc1 [Compound 164, N-(6-(1,2-Dimethyl-1H-imidazol-5-yl)isoquinolin-3-yl)-4-(methoxy-d3) benzamide] | 1480 |  |  |  | 
11 | 2.85 | 3740 | > 10000 | 752 | 498 | 6 |  | [2H]c1c([2H])c(C(=O)Nc2cc3cc(-c4cnc(C)n4C)ccc3cn2)c([2H])c([2H])c1OC([2H])([2H])[2H] [Compound 165, N-(6-(1,2-Dimethyl-1H-imidazol-5-yl)isoquinolin-3-yl)-4-(methoxy-d3) benzamide-2,3,5,6-d4] | 998 |  |  |  | 
12 | 3.55 | 6380 | > 10000 | 671 | 525 | 9 |  | [2H]c1c([2H])c(C(=O)Nc2cc3cc(-c4cnc(C)n4C)ccc3cn2)c([2H])c([2H])c1OC [Compound 166, N-(6-(1,2-Dimethyl-1H-imidazol-5-yl)isoquinolin-3-yl)-4-methoxybenzamide-2,3,5,6-d4] | 1880 |  |  |  | 
13 | 1.25 | 96 | 288 | 3340 | 2350 |  | 7 | Cn1cc(-c2ccc3cnc(NC(=O)C4CCN(C(C)(C)C)CC4)cc3c2)cn1 [Compound 167, 1-(tert-Butyl)-N-(6-(1-methyl-1H-pyrazol-4-yl)isoquinolin-3-yl)piperidine-4-carboxamide] | 293 |  |  |  | 
14 | > 10 | 20 | 578 | > 10000 | > 10000 |  | 4 | Cc1nnc(-c2ccc3cnc(NC(=O)N4CCC(NCC(F)F)CC4)cc3c2)s1 [Compound 168, 4-((2,2-Difluoroethyl)amino)-N-(6-(5-methyl-1,3,4-thiadiazol-2-yl)isoquinolin-3-yl)piperidine-1-carboxamide] | 1300 | 14.2 |  | 19.4 | 42.2
15 | 1.02 | 47 | 154 | 1130 | 2540 |  | 3 | CCCCN1CCC(C(=O)Nc2cc3cc(-c4cnn(C)c4)ccc3cn2)CC1 [Compound 169, 1-Butyl-N-(6-(1-methyl-1H-pyrazol-4-yl)isoquinolin-3-yl)piperidine-4-carboxamide] | 148 |  |  |  | 
16 | > 10 | 52 | 9910 | > 10000 | > 10000 | 15 |  | CC(C)C[N+]1(CC(C)C)CCC(C(=O)Nc2cc3cc(-c4cnn(C)c4)ccc3cn2)CC1 [Compound 170, 1,1-Diisobutyl-4-((6-(1-methyl-1H-pyrazol-4-yl)isoquinolin-3-yl)carbamoyl)piperidin-1-ium] | 7090 | 4.4 |  | 27 | 23.1
17 | > 10 | 207 | 4000 | > 10000 | 1040 |  | 23 | Cc1nnc(-c2ccc3cnc(NC(=O)N4C[C@H]5C[C@@H]4CN5C)cc3c2)s1 [Compound 176, (1R,4R)-5-Methyl-N-(6-(5-methyl-1,3,4-thiadiazol-2-yl)isoquinolin-3-yl)-2,5-diazabicyclo[2.2.1]heptane-2-carboxamide] | > 10000 | 8.4 | 8.4 | 8.3 | 
18 | > 10 | 26 | 1300 | 5060 | 2780 |  | 18 | CN[C@H]1CCN(C(=O)Nc2cc3cc(-c4nnc(C)s4)ccc3cn2)C[C@@H]1F [Compound 179, (3S,4S)-3-Fluoro-N-(6-(5-methyl-1,3,4-thiadiazol-2-yl)isoquinolin-3-yl)-4-(methylamino)piperidine-1-carboxamide] | > 10000 | 10.1 | 10.1 |  | 
